Measurements taken from article PMC8232621, “Antimicrobial Activity of a Library of Thioxanthones and Their Potential as Efflux Pump Inhibitors” (Pharmaceuticals, 2021).

Legend:
P-gp = system: P-gp; parameters: method as in PMID 22044878; conditions: cited from earlier work
E. faecalis B3/101 = assay: Synergy with vancomycin (antibiotic MIC in presence of compound); format: cell-based, Enterococcus faecalis
Description: The referred library of thioxanthones was initially tested for their antimicrobial activity against six bacterial strains: the Gram-negative Escherichia coli ATCC 25922, Pseudomonas aeruginosa ATCC 27853 and Salmonella enterica serovar Typhimurium SL1344 (SE03), with the acrA gene deleted, and the Gram-positive Staphylococcus aureus ATCC 29213, Enterococcus faecalis ATCC 29212 and the methicillin and ofloxacin-resistant clinical isolate S. aureus 272123. For the synergy assay, two clinically relevant isolates were used: the extended-spectrum β-lactamase (ESBL)-producing E. coli SA/2 [23] and the vancomycin-resistant E. faecalis (VRE) B3/101 [23]. The antibiotics used were cefotaxime (CTX) and vancomycin (VAN), respectively.
The combined effect of the compounds and clinically relevant antimicrobial drugs was evaluated by determining the antibiotic’s MIC in the presence of each compound. […] The antibiotic tested was serially diluted, whereas the concentration of each compound was kept fixed. In the case of compound 12, the concentration used was 8 µg/mL. For all other compounds, the concentration used was 64 µg/mL. Antibiotic MICs were determined as described above.

P-glycoprotein (P-gp) [1] = assay: Flow cytometry analysis of P-glycoprotein expression in Caco-2 cells (UIC2-PE antibody); format: cell-based, human; conditions: 20 µM, 24 h
Experimental: However, the ability of compounds 9–17 to interfere with the fluorescence of the UIC2-PE antibody was assessed first. For this purpose, Caco-2 cells were incubated for 24 h, in the presence or absence of thioxanthone derivatives (20 μM), and subsequently analysed, by flow cytometry, as described for the P-gp expression assay. A remarkable increase in the intracellular fluorescence of cells exposed to compounds 10–13 and 15–17 was observed, making it impossible to assess the effect of these thioxanthone derivatives on P-gp expression. In fact, compounds 15–17 had previously been reported as fluorescent compounds [15] and this characteristic limited some of the studies reported herein. […] Briefly, Caco-2 cells were seeded in 24-well plates at a density of 60,000 cells/cm^2 and exposed, three days after seeding, to a non-cytotoxic concentration of the tested compounds (20 µM). […] The cells were then washed twice with HBSS (+/+), centrifuged (300 g for 5 min, at 4 °C) and kept on ice until analysis. […] The parameter used for comparison was the mean fluorescence intensity (MFI), calculated as a percentage of control cells (0 μM). The cells autofluorescence (unlabelled cells with or without exposure to the tested compounds) was also evaluated to eliminate its potential contribution to the analysed fluorescence signals. […]

P-glycoprotein (P-gp) [2] = molecular target: T1, P-glycoprotein (P-gp) (Homo sapiens, UniProt P08183); assay: P-gp transport activity, RHO 123 accumulation in Caco-2 cells in presence of compounds (90 min); format: cell-based; conditions: 20 µM only during the 90 min incubation with RHO 123
T1 construct: P-glycoprotein (P-gp) activity assessed by fluorescence spectroscopy in Caco-2 cells; endogenous in cells; host or cells: Caco-2 cells (ECACC)
Experimental: Concerning the second experimental approach used to evaluate the effects of the compounds in P-gp activity, Caco-2 cells were exposed to thioxanthone derivatives (20 µM) only during the 90 min of incubation with the fluorescent substrate (RHO 123, 10 µM). This experimental approach aims to evaluate the potential immediate effects of thioxanthone derivatives on P-gp activity as a result of a direct inhibition or activation of the protein, i.e., not to change the protein expression. […] In contrast, compounds 12 and 13 caused a significant and immediate decrease in P-gp activity (to 82 and 85%, respectively), when compared to control cells (0 µM).
The effect of the tested compounds on P-gp activity was evaluated using rhodamine 123 (RHO 123) as a P-gp fluorescent substrate, and ZOS as a specific third-generation P-gp inhibitor. Indeed, several studies report the use of RHO 123 accumulation/efflux assays for the direct assessment of P-gp activity through the quantification of the intracellular fluorescence of the P-gp substrate. Caco-2 cells were seeded in 24-well plates at a density of 60,000 cells/cm^2 and, three days after seeding, and submitted to two different protocols of RHO 123 accumulation: 1) RHO 123 accumulation in cells pre-exposed to the compounds (20 µM) for 24 h; 2) RHO 123 accumulation in the presence of the tested compounds (20 µM) for 90 min, as previously described.
On the other hand, in the second protocol, the cells were exposed to the tested compounds 30 min prior to addition of the P-gp fluorescent substrate, RHO 123, and remained in contact with the cells only during the substrate accumulation period, thus aiming to detect immediate effects of the tested compounds on P-gp activity as a result of a direct P-gp activation or inhibition. For that purpose, three days after seeding, the cell culture medium was removed, and the cells submitted to the following procedures:
RHO 123 accumulation under normal conditions (NA): pre-exposure to compounds (20 μM), prepared in HBSS (+/+), for 30 min at 37 °C, followed by incubation with RHO 123 (5 μM) for 90 min, at 37 °C, in a humidified 5% CO2 and 95% O2 air atmosphere. Control cells were only exposed to RHO 123.
RHO 123 accumulation in the presence of the P-gp inhibitor (IA): simultaneous pre-exposure to compounds (20 μM) and ZOS (5 μM), both prepared in HBSS (+/+), for 30 min at 37 °C, followed by incubation with RHO 123 (5 μM) for 90 min, at 37 °C, in a humidified 5% CO2 and 95% O2 air atmosphere. Control cells were only exposed to ZOS and RHO 123.
After the 90 min of incubation with RHO 123, the cells were washed twice with HBSS (-/-) and lysed with 1% Triton™ X100, for 30 min, in the dark, at room temperature. RHO 123 intracellular fluorescence was then measured at excitation/emission wavelengths of 485/528 nm, in a multi-well plate reader (PowerWave-X, BioTek Instruments, VT, USA) and expressed as fluorescence intensity (FI). The ratio between the FI after inhibited RHO 123 accumulation (IA) and the FI of non-inhibited RHO 123 accumulation (NA) was the parameter used for comparison, and the results were expressed as a percentage of control cells (Equation (3)). Given the high autofluorescence of several of the tested compounds at the conditions used to measure RHO 123 fluorescence, only compounds 9, 10, 12, 13, and 14 were able to be tested for their potential immediate effect on P-gp activity. Four independent experiments were performed, in triplicate.

T1 sequence (P08183 whole entry): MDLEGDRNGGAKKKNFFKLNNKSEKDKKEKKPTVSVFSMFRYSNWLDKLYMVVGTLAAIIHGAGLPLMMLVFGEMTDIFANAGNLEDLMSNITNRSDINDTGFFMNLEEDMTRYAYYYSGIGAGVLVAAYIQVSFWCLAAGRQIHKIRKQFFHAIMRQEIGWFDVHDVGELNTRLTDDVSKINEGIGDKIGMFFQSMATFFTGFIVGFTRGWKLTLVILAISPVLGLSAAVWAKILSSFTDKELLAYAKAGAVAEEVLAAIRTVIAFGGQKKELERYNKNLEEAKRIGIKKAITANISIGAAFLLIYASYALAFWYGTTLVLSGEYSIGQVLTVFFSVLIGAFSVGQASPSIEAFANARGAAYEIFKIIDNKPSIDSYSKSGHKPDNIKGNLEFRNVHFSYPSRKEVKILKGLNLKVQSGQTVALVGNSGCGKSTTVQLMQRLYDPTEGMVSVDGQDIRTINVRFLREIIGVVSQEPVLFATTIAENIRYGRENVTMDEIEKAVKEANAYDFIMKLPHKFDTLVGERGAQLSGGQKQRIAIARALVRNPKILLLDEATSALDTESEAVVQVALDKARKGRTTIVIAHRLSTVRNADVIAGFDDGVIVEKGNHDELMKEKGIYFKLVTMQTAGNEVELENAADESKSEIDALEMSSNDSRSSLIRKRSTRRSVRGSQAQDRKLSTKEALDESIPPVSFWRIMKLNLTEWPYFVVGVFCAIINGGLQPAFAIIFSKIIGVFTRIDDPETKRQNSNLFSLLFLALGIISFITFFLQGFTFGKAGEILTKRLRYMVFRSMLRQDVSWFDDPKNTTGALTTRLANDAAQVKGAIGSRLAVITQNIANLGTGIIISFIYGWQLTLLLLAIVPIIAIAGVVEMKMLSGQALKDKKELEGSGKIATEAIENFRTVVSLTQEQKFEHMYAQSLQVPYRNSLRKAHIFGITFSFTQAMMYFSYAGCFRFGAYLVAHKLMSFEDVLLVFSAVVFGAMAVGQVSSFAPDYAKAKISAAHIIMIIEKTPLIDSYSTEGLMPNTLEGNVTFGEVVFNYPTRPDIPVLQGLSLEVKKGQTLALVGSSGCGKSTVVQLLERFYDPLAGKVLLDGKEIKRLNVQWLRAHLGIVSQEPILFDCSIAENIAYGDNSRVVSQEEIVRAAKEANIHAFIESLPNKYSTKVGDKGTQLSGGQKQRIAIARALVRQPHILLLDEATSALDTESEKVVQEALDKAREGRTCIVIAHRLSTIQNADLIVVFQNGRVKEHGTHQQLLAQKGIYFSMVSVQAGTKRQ

Compound	type of P-gp inhibition (P-gp)	decrease of the MIC of VAN (E. faecalis B3/101) [fold]	P-gp expression levels (control cells 100%) (P-glycoprotein (P-gp) [1])	P-gp activity (control cells 100%) (P-glycoprotein (P-gp) [2])
CCCOc1ccc(NCCN(CC)CC)c2c(=O)c3ccccc3sc12 [Compound 2]	competitive inhibitor			
CCCOc1ccc(N2CCNC(=O)C2)c2c(=O)c3ccccc3sc12 [Compound 9, 4-(9-Oxo-4-propoxy-9H-thioxanthen-1-yl)piperazin-2-one]		16	no significant differences	no significant differences
CCCOc1ccc(NCCO)c2c(=O)c3ccccc3sc12 [Compound 10, 1-[(2-Hydroxyethyl)amino]-4-propoxy-9H-thioxanthen-9-one]				no significant differences
CCCOc1ccc(NS(=O)(=O)c2ccc(C(=O)O)cc2)c2c(=O)c3ccccc3sc12 [Compound 12, 4-[N-(9-Oxo-4-propoxy-9H-thioxanthen-1-yl)sulfamoyl]benzoic acid]				82%
CCCOc1ccc(NS(=O)(=O)c2ccc(N)cc2)c2c(=O)c3ccccc3sc12 [Compound 13, 4-Amino-N-(9-oxo-4-propoxy-9H-thioxanthen-1-yl)benzenesulfonamide]				85%
CCCOc1ccc(Br)c2c(=O)c3ccccc3sc12 [Compound 14, 1-Bromo-4-propoxy-9H-thioxanthen-9-one]			83%	116%
